Measurements: ChEMBL document CHEMBL5143555, “Potentiating the intracellular killing of Staphylococcus aureus by dihydroquinazoline analogues as NorA efflux pump inhibitor” (Bioorg Med Chem, 2022)
Values after ≈ are worked out from the molar mass of the structure shown. Active and inactive are the calls of the source. The calls are words filed in the database; no cut-off is given here.

Legend:
Staphylococcus aureus [1] = assay: Antibacterial activity against Staphylococcus aureus 1199B measured after 24 hrs by Muller Hinton broth based MTT assay; format: functional
Staphylococcus aureus [2] = assay: Antibacterial activity against Staphylococcus aureus 1199 measured after 24 hrs by Muller Hinton broth based MTT assay; format: functional
Staphylococcus aureus [3] = assay: Antibacterial activity against Staphylococcus aureus K1758 measured after 24 hrs by Muller Hinton broth based MTT assay; format: functional
[4] = target: T1, Quinolone resistance protein NorA (Staphylococcus aureus) (UniProt P0A0J7); assay: Inhibition of NorA in Staphylococcus aureus 1199B assessed as accumulation of norfloxacin at 3.9 ug/ml by measuring fluorescence intensity measured at 5 mins interval for 40 mins by fluorescence spectrophotometry; details: dose 3.9 µg/ml
T1 sequence (whole entry): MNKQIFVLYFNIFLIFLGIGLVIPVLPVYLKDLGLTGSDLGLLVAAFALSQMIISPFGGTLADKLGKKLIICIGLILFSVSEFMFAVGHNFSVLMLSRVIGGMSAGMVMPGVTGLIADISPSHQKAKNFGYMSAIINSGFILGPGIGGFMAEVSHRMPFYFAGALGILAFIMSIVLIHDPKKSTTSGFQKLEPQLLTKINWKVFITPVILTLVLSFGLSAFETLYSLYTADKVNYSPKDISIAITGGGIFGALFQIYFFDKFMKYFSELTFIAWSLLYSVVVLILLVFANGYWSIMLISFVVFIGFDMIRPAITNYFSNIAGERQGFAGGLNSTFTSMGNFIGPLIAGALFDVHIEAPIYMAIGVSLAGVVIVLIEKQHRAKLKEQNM

[5] = target: T1, Quinolone resistance protein NorA (Staphylococcus aureus); assay: Inhibition of NorA in Staphylococcus aureus 1199B assessed as potentiation of norfloxacin-induced antibacterial activity by measuring Norfloxacin MIC at sub MIC
[6] = target: T1, Quinolone resistance protein NorA (Staphylococcus aureus); assay: Inhibition of NorA in Staphylococcus aureus 1199B assessed as potentiation of norfloxacin-induced antibacterial activity by measuring Norfloxacin MIC at sub MIC relative to norfloxacin MIC alone
[7] = target: T1, Quinolone resistance protein NorA (Staphylococcus aureus); assay: Inhibition of NorA in Staphylococcus aureus 1199B assessed as potentiation of norfloxacin-induced antibacterial activity by measuring fractional inhibitory concentration
[8] = target: T1, Quinolone resistance protein NorA (Staphylococcus aureus); assay: Inhibition of NorA in Staphylococcus aureus 1199B assessed as potentiation of ethidium bromide-induced antibacterial activity by measuring ethidium bromide MIC at sub MIC
[9] = target: T1, Quinolone resistance protein NorA (Staphylococcus aureus); assay: Inhibition of NorA in Staphylococcus aureus 1199B assessed as potentiation of ethidium bromide-induced antibacterial activity by measuring ethidium bromide MIC at sub MIC relative to ethidium bromide MIC alone
[10] = target: T1, Quinolone resistance protein NorA (Staphylococcus aureus); assay: Inhibition of NorA in Staphylococcus aureus 1199B assessed as potentiation of ethidium bromide-induced antibacterial activity by measuring fractional inhibitory concentration
[11] = target: T1, Quinolone resistance protein NorA (Staphylococcus aureus); assay: Inhibition of NorA in Staphylococcus aureus 1199B assessed as potentiation of 3.1 ug/mL norfloxacin-induced bactericidal activity by measuring log reduction in bacterial count at 3.9 ug/mL measured after 24 hrs by time-kill kinetics assay; details: dose 3.9 µg/ml
[12] = target: T1, Quinolone resistance protein NorA (Staphylococcus aureus); assay: Inhibition of NorA in Staphylococcus aureus 1199B assessed as potentiation of ethidium bromide-induced bactericidal activity at 62.5 ug/ml measured after 24 hrs by time-kill kinetics assay; details: dose 62.5 µg/ml
[13] = Cytotoxicity against kidney epithelial cells (unknown origin) assessed as cell viability at 50 ug/mL measured after 24 hrs by alamar blue assay relative to control; format: toxicity, cell-based, Fetal kidney cell; details: at 50 µg/mL, read-out: Activity
[14] = target: T1, Quinolone resistance protein NorA (Staphylococcus aureus); assay: Inhibition of NorA in Staphylococcus aureus 1199B assessed as accumulation of ethidium bromide at 3.9 ug/ml by measuring fluorescence intensity measured at 5 mins interval for 40 mins by fluorescence spectrophotometry; details: dose 3.9 µg/ml
[15] = target: T1, Quinolone resistance protein NorA (Staphylococcus aureus); assay: Inhibition of NorA in Staphylococcus aureus 1199B assessed as potentiation of 3.1 ug/mL norfloxacin-induced bactericidal activity by measuring log reduction in bacterial count at 7.8 ug/mL measured after 12 hrs by time-kill kinetics assay; details: dose 7.8 µg/ml
[16] = target: T1, Quinolone resistance protein NorA (Staphylococcus aureus); assay: Inhibition of NorA in Staphylococcus aureus 1199B assessed as potentiation of ethidium bromide-induced bactericidal activity at 7.8 ug/ml measured within 8 hrs by time-kill kinetics assay; details: dose 7.8 µg/ml
[17] = target: T1, Quinolone resistance protein NorA (Staphylococcus aureus); assay: Inhibition of NorA in Staphylococcus aureus 1199B assessed as potentiation of 3.1 ug/mL norfloxacin-induced bactericidal activity by measuring log reduction in bacterial count at 7.8 ug/mL measured after 8 hrs by time-kill kinetics assay; details: dose 7.8 µg/ml
[18] = target: T1, Quinolone resistance protein NorA (Staphylococcus aureus); assay: Inhibition of NorA in Staphylococcus aureus 1199B assessed as potentiation of ethidium bromide-induced bactericidal activity at 62.5 ug/ml measured within 8 hrs by time-kill kinetics assay; details: dose 62.5 µg/ml
[19] = target: T1, Quinolone resistance protein NorA (Staphylococcus aureus); assay: Inhibition of NorA in Staphylococcus aureus 1199B assessed as potentiation of norfloxacin-induced morphological changes by measuring appearance of undeveloped cells sticking together at sub MIC by field emission scanning electron microscopy
Staphylococcus aureus [20] = assay: Down regulation of NorA gene expression in Staphylococcus aureus 1199B at 3.9 ug/ml measured after 2 hrs by qRT-PCR analysis; format: functional; details: dose 3.9 µg/ml
Staphylococcus aureus [21] = assay: Down regulation of NorA gene expression in Staphylococcus aureus 1199B at 3.1 ug/ml measured after 2 hrs by qRT-PCR analysis relative to control; format: functional; details: dose 3.1 µg/ml
Staphylococcus aureus [22] = assay: Down regulation of NorA gene expression in Staphylococcus aureus 1199B at 3.1 ug/ml measured after 2 hrs in presence of norfloxacin by qRT-PCR analysis relative to norfloxacin; format: functional; details: dose 3.1 µg/ml
[23] = target: T1, Quinolone resistance protein NorA (Staphylococcus aureus); assay: Inhibition of NorA in Staphylococcus aureus 1199B infected human THP-1 cells assessed as potentiation of norfloxacin-induced bactericidal activity by measuring reduction in bacterial count at modulatory concentration measured after 24 hrs; format: cell-based
[24] = target: T1, Quinolone resistance protein NorA (Staphylococcus aureus); assay: Inhibition of NorA in Staphylococcus aureus 1199B infected human THP-1 cells assessed as potentiation of norfloxacin-induced bactericidal activity by measuring reduction in bacterial count at modulatory concentration measured after 24 hrs relative to control; format: cell-based
[25] = target: T1, Quinolone resistance protein NorA (Staphylococcus aureus); assay: Inhibition of NorA in Staphylococcus aureus 1199B infected human THP-1 cells assessed as potentiation of norfloxacin-induced bactericidal activity by measuring reduction in intracellular invasion at modulatory concentration measured after 24 hrs; format: cell-based
[26] = target: T1, Quinolone resistance protein NorA (Staphylococcus aureus); assay: Inhibition of NorA in Staphylococcus aureus 1199B infected human THP-1 cells assessed as potentiation of norfloxacin-induced bactericidal activity by measuring reduction in intracellular proliferation at modulatory concentration measured after 24 hrs; format: cell-based
[27] = target: T1, Quinolone resistance protein NorA (Staphylococcus aureus); assay: Inhibition of NorA in Staphylococcus aureus 1199B infected human THP-1 cells assessed as potentiation of 6.2 ug/ml norfloxacin-induced bactericidal activity by measuring log reduction in bacterial count at 15.6 ug/ml measured after 24 hrs relative to control; format: cell-based; details: dose 15.6 µg/ml
[28] = target: T1, Quinolone resistance protein NorA (Staphylococcus aureus); assay: Inhibition of NorA in Staphylococcus aureus 1199B infected human THP-1 cells assessed as potentiation of norfloxacin-induced bactericidal activity by measuring log reduction in bacterial count measured after 24 hrs relative to vancomycin; format: cell-based

Molecule: COc1ccc(C2N=C(c3ccccc3)c3ccccc3N2)cc1 (stereo unspecified)
- MIC (Staphylococcus aureus [1]): 500 µg/mL (≈ 1590 µM)
- MIC (Staphylococcus aureus [2]): 125 µg/mL (≈ 398 µM)
- MIC (Staphylococcus aureus [3]): 250 µg/mL (≈ 795 µM)

Molecule: CN1c2ccc(Cl)cc2C(c2ccccc2)=NC1c1ccco1 (stereo unspecified)
- MIC (Staphylococcus aureus [1]): > 1000 µg/mL
- MIC (Staphylococcus aureus [2]): 125 µg/mL (≈ 387 µM)
- MIC (Staphylococcus aureus [3]): 250 µg/mL (≈ 774 µM)

Molecule: GENTAMICIN
- MIC (Staphylococcus aureus [1]): 1.7 µg/mL
- MIC (Staphylococcus aureus [2]): 0.21 µg/mL
- MIC (Staphylococcus aureus [3]): 0.1 µg/mL

Molecule: CN[C@@H]1[C@H](O[C@H]2[C@H](O[C@H]3[C@H](O)[C@@H](O)[C@H](N=C(N)N)[C@@H](O)[C@@H]3N=C(N)N)O[C@@H](C)[C@]2(O)C=O)O[C@@H](CO)[C@H](O)[C@H]1O [STREPTOMYCIN]
- MIC (Staphylococcus aureus [1]): 3.5 µg/mL (≈ 6.02 µM)
- MIC (Staphylococcus aureus [2]): 1.7 µg/mL (≈ 2.92 µM)
- MIC (Staphylococcus aureus [3]): 0.4 µg/mL (≈ 0.688 µM)

Molecule: CC(=O)NC[C@H]1CN(c2ccc(N3CCOCC3)c(F)c2)C(=O)O1 [LINEZOLID]
- MIC (Staphylococcus aureus [1]): 1.75 µg/mL (≈ 5.19 µM)
- MIC (Staphylococcus aureus [2]): 0.85 µg/mL (≈ 2.52 µM)
- MIC (Staphylococcus aureus [3]): 0.1 µg/mL (≈ 0.296 µM)

Molecule: CC[C@H]1OC(=O)[C@H](C)[C@@H](O[C@H]2C[C@@](C)(OC)[C@@H](O)[C@H](C)O2)[C@H](C)[C@@H](O[C@@H]2O[C@H](C)C[C@H](N(C)C)[C@H]2O)[C@](C)(O)C[C@@H](C)C(=O)[C@H](C)[C@@H](O)[C@]1(C)O [ERYTHROMYCIN]
- MIC (Staphylococcus aureus [1]): 0.42 µg/mL (≈ 0.572 µM)
- MIC (Staphylococcus aureus [2]): 0.1 µg/mL (≈ 0.136 µM)
- MIC (Staphylococcus aureus [3]): 0.1 µg/mL (≈ 0.136 µM)

Molecule: C=CCOc1ccc(C2N=C(c3ccccc3)c3ccccc3N2)cc1 (stereo unspecified)
- MIC (Staphylococcus aureus [1]): 500 µg/mL (≈ 1470 µM)
- MIC (Staphylococcus aureus [2]): 125 µg/mL (≈ 367 µM)
- MIC (Staphylococcus aureus [3]): 250 µg/mL (≈ 734 µM)

Molecule: c1ccc(C2=NC(c3ccccc3)Nc3ccccc32)cc1 (stereo unspecified)
- Flu intensity [4]: 3960
- MIC (Staphylococcus aureus [1]): 250 µg/mL (≈ 879 µM)
- MIC (Staphylococcus aureus [2]): 125 µg/mL (≈ 440 µM)
- MIC (Staphylococcus aureus [3]): 250 µg/mL (≈ 879 µM)
- MIC [5]: 3.1 µg/mL
- fold change (FC) [6]: 16
- fractional inhibitory concentration index (FICI) [7]: 0.078
- MIC [8]: 3.1 µg/mL
- fold change (FC) [9]: 16
- fractional inhibitory concentration index (FICI) [10]: 0.31
- Activity [11]: > 3 log10CFU/ml
- inhibition [12]: Active
- viability at 24 h, 50 ug/mL [13]: 71%
- Flu intensity [14]: 96.1

Molecule: CN1c2ccc(Cl)cc2C(c2ccccc2)=NC1c1ccccc1 (stereo unspecified)
- Flu intensity [4]: 1560
- MIC (Staphylococcus aureus [1]): 500 µg/mL (≈ 1500 µM)
- MIC (Staphylococcus aureus [2]): 125 µg/mL (≈ 376 µM)
- MIC (Staphylococcus aureus [3]): 250 µg/mL (≈ 751 µM)
- MIC [5]: 6.2 µg/mL
- fold change (FC) [6]: 8
- fractional inhibitory concentration index (FICI) [7]: 0.141
- MIC [8]: 12.5 µg/mL
- fold change (FC) [9]: 4
- fractional inhibitory concentration index (FICI) [10]: 0.266
- Activity [15]: > 3 log10CFU/ml
- inhibition [16]: Active
- viability at 24 h, 50 ug/mL [13]: 5%
- Flu intensity [14]: 143

Molecule: CN1c2ccc(Cl)cc2C(c2ccccc2)=NC1c1ccc(Br)cc1 (stereo unspecified)
- Flu intensity [4]: 23600
- MIC (Staphylococcus aureus [1]): 500 µg/mL (≈ 1210 µM)
- MIC (Staphylococcus aureus [2]): 125 µg/mL (≈ 304 µM)
- MIC (Staphylococcus aureus [3]): 250 µg/mL (≈ 607 µM)
- MIC [5]: 6.2 µg/mL
- fold change (FC) [6]: 8
- fractional inhibitory concentration index (FICI) [7]: 0.141
- MIC [8]: 3.1 µg/mL
- fold change (FC) [9]: 16
- fractional inhibitory concentration index (FICI) [10]: 0.187
- Activity [17]: > 3 log10CFU/ml
- inhibition [18]: Active
- viability at 24 h, 50 ug/mL [13]: 86.6%
- inhibition [19]: Active
- Flu intensity [14]: 70.6
- Activity (Staphylococcus aureus [20]): Active
- fold change (FC) (Staphylococcus aureus [21]): 8
- fold change (FC) (Staphylococcus aureus [22]): 9
- Activity [23]: 4.47 log10CFU/ml
- fold change (FC) [24]: 4
- inhibition [25]: Active
- inhibition [26]: Active
- FC [27]: 5
- FC [28]: 3

Molecule: Brc1ccc(C2N=C(c3ccccc3)c3ccccc3N2)cc1 (stereo unspecified)
- MIC (Staphylococcus aureus [1]): > 1000 µg/mL
- MIC (Staphylococcus aureus [2]): 125 µg/mL (≈ 344 µM)
- MIC (Staphylococcus aureus [3]): 250 µg/mL (≈ 688 µM)
